{"source": "paper PMC6791019", "about": "“(−)-Epigallocatechin-3-gallate derivatives combined with cisplatin exhibit synergistic inhibitory effects on non-small-cell lung cancer cells” (Cancer Cell International, 2019)", "key": {"[1]": {"assay": "Transport across Caco-2 cell monolayers", "format": "in vitro ADME, human", "conditions": "human; for Papp A→B at 30 min, 50 μg/mL / Papp A→B at 60 min, 50 μg/mL / Papp B→A at 30 min, 50 μg/mL / Papp B→A at 60 min, 50 μg/mL: Caco-2, 50 μg/mL; for Papp A→B at 30 min, 50 μg/mL / Papp A→B at 60 min, 50 μg/mL: apical to basolateral; for Papp B→A at 30 min, 50 μg/mL / Papp B→A at 60 min, 50 μg/mL: basolateral to apical; for Papp: Caco-2, summary of Table 1, read-out: apparent permeability coefficients (Papp), range over directions and times", "experimental": "(§1) Caco-2 cells were grown as epithelial monolayers, seeded onto fibrillar collagen-coated polyethylene terephthalate (PET) Corning transwell inserts (1.12 cm^2) with a pore size of 3 μm at a density of 2.0 × 10^5 cells/insert, and incubated at 37 °C in an atmosphere of 5% CO2 and 95% relative humidity in complete DMEM. The medium was replaced every 2 days with 0.5 mL medium in the apical (AP) side and 1.5 mL in the basolateral (BL) side over a period of 21 days. The integrity of the cell monolayer was determined by measuring the TEER (transepithelial electrical resistance) using an epithelial voltohmmeter (EVOM). The TEER values for each monolayer were measured every 2 days until they exceeded 350 Ω cm^2. To ensure the integrity of the Caco-2 monolayers, the TEER values were monitored before and after the experiments.\n(§2) To measure the transport of EGCG and compound 3 across the Caco-2 cell monolayer, both sides of the transwell were equilibrated for 30 min with warm Hank’s balanced salt solution (HBSS). The transport buffer containing EGCG and compound 3 was added to either the apical (0.5 mL) or the basolateral (1.5 mL) side of the insert, while the receiving compartment contained the corresponding volume of transport buffer. After incubation for 30 or 60 min, 100 μL samples were taken from the receiving chamber and immediately replenished with an equal volume of pre-warmed HBSS. The samples were acidified with an equal volume of 5% formic acid and then frozen until LC–MS analysis.\n(§3) The apparent permeability coefficients (Papp) of the compounds were calculated using the following equation: Papp=dQ/dt×1/A·C0, where dQ/dt is the amount of solute transported across the Caco-2 barrier in time dt, C0 is the solute concentration in the apical compartment at time zero, and A is the cross-sectional area of the epithelium in contact with the apical solution."}, "NCI-H441 xenograft": {"system": "NCI-H441 xenograft", "assay": "NCI-H441 xenograft model in nude mice", "format": "in vivo, BALB-C/nude mice", "conditions": "for tumor growth compared with the control: compound 3 200 mg/kg per day, cDDP 2 mg/kg per 2 days, i.p., nude mice", "experimental": "Twenty-four male BALB-C/nude mice were purchased from the Cavens Lab Animal (Changzhou, China). The mice were subcutaneously injected in the dorsal with NCI-H441 cells (4 × 10^6/0.2 mL PBS per mouse). The mice were randomly divided into four groups, including control, compound 3, cDDP, and compound 3 plus cDDP (n = 6, per group). The mice were treated with compound 3 (200 mg/kg per day) and cDDP (2 mg/kg per 2 days) alone or in combination. All drugs were given through intra-peritoneal injection. Tumour size was measured once every 2 days with a calipre (volume mm^3 = length × width × width/2). Body weight was recorded once every 2 days. After there weeks of treatment, all mice were euthanized by cervical dislocation and the tumors were excised into formalin, and portion of the tumor fresh frozen in liquid nitrogen for further processing and analysis.\nThree micrometer sections were cut, deparaffinized in xylenes, rehydrated in ethanol, and washed in phosphate-buffered saline. The antigen was retrieved at 95 °C for 20 min in 0.01 M citrate buffer (pH 6.0). Then incubated with primary antibodies overnight at 4 °C, followed by incubation with the secondary antibody at RT for 1 h. The immunostaining was performed using DAB, and counterstained with hematoxylin."}, "NCI-H441 cells [2]": {"system": "NCI-H441 cells", "assay": "Annexin V-FITC/PI apoptosis assay by flow cytometry", "format": "cell-based, human", "conditions": "NCI-H441, 48 h", "experimental": "Cell apoptosis was quantified using an annexin V/propidium iodide (PI) detection kit (BD Biosciences, PA, USA) and flow cytometry. Cells (5 × 10^5/well) were plated in six-well dishes and then treated with the EGCG derivatives with or without cDDP. After the treatment, the collected cells were incubated in 100 µL of binding buffer and 5 µL of FITC annexin V and 10 µL of PI were added to the suspension. The mixtures were gently vortexed and then incubated for 15 min at room temperature in the dark before performing the flow cytometry measurements (BD FACSCalibur) within 1 h."}, "Caco-2 cell monolayers": {"system": "Caco-2 cell monolayers", "assay": "Transport across Caco-2 cell monolayers", "format": "in vitro ADME, human", "conditions": "Caco-2, 50 µg/mL, A→B", "experimental": "as §1, §2, §3"}, "A549 cells": {"system": "A549 cells", "assay": "MTT cell proliferation assay, A549", "format": "cell-based, human", "conditions": "0-150 µM, 48 h", "experimental": "(§4) The effects of the EGCG derivatives on the survival of NSCLC cells were determined using the MTT assay. A549, NCI-H441, and NCI-H1975 cells were seeded in 96-well plates (3 × 10^4 cells/well) and then treated with one of the EGCG derivatives alone (0, 30, 60, 90, 120, or 150 µM), cDDP alone (12 µM), or 12 μM cDDP plus one of the EGCG derivatives (100 µM) for 48 h. MTT was then added to the cells and the plates were incubated for a further 4 h. After removal of the culture medium, the produced MTT formazan crystals were dissolved with 150 µL DMSO and measured at 492 nm using a microplate reader. The percentage of inhibition was calculated as follows: inhibition ratio (IR, %) = (1 − OD(sample)/OD(control)) × 100%. The experiments were carried out in triplicate, and the IC50 (the concentration of drug that inhibits cell growth by 50%) values were determined."}, "NCI-H1975 cells": {"system": "NCI-H1975 cells", "assay": "MTT cell proliferation assay, NCI-H1975", "format": "cell-based, human", "conditions": "0-150 µM, 48 h", "experimental": "as §4"}, "NCI-H441 cells [3]": {"system": "NCI-H441 cells", "assay": "MTT cell proliferation assay, NCI-H441", "format": "cell-based, human", "conditions": "0-150 µM, 48 h", "experimental": "as §4"}, "[4]": {"system": "EGFR signaling pathway in NCI-H441 cells", "assay": "Western blotting of EGFR signaling pathway proteins", "format": "cell-based, human", "conditions": "NCI-H441, western blot after 12 h", "experimental": "(§5) Samples containing equal amounts of proteins as indicated in the text were resolved by SDS polyacrylamide gel electrophoresis and transferred to PVDF membranes. The membranes were blocked with 5% BSA at room temperature for 1 h and then probed with primary antibodies overnight at 4 °C and incubated with the HRP-conjugated secondary antibodies for 1 h at room temperature. HRP was detected using the Pro-light HRP Chemiluminescent Kit (Tiangen Biotech, Beijing, China) and FluorChem E System (ProteinSimple, Santa Clara, CA, United States)."}, "NCI-H441 cells [5]": {"system": "NCI-H441 cells", "assay": "Cell cycle analysis by PI staining and flow cytometry", "format": "cell-based, human", "conditions": "NCI-H441, 0, 50, 100, 150 μM", "experimental": "Aliquots of 5 × 10^5 cells were harvested, washed with phosphate-buffered saline (PBS), and then fixed in 70% ethanol at 4 °C overnight. After fixation, the cells were washed twice with cold PBS and stained in binding buffer containing 1 µg/mL of propidium iodide (BD Biosciences) and RNase for 0.5 h. The samples were then analyzed by flow cytometry (BD FACSCalibur)."}, "NCI-H441 cells [6]": {"system": "NCI-H441 cells", "assay": "Western blotting of cell cycle and apoptosis proteins", "format": "cell-based, human", "conditions": "NCI-H441, western blot, cDDP alone", "experimental": "as §5"}}}
{"molecule": "O=C(O[C@@H]1Cc2c(O)cc(O)cc2O[C@@H]1c1cc(O)c(O)c(O)c1)c1cc(O)c(O)c(O)c1", "note": "[EGCG, (−)-epigallocatechin-3-gallate]", "values": [{"measurement": "Papp A→B at 30 min, 50 μg/mL", "setting": "[1]", "result": 0.189, "unit": "×10⁻⁶ cm/s"}, {"measurement": "Papp A→B at 60 min, 50 μg/mL", "setting": "[1]", "result": 0.32, "unit": "×10⁻⁶ cm/s"}, {"measurement": "Papp B→A at 30 min, 50 μg/mL", "setting": "[1]", "result": 0.89, "unit": "×10⁻⁶ cm/s"}, {"measurement": "Papp B→A at 60 min, 50 μg/mL", "setting": "[1]", "result": 0.083, "unit": "×10⁻⁶ cm/s"}, {"measurement": "Papp", "setting": "[1]", "result": "0.083 to 0.914", "unit": "×10⁻⁶ cm/s"}]}
{"molecule": "O=C(O[C@@H]1Cc2c(OCc3cnnn3[C@@H]3O[C@H](CO)[C@@H](O)[C@H](O)[C@H]3O)cc(O)cc2O[C@@H]1c1cc(O)c(O)c(O)c1)c1cc(O)c(O)c(O)c1", "note": "[compound 3, (2R,3R)-7-Hydroxy-5-((1-((2R,3R,4S,5S,6R)-3,4,5-trihydroxy-6-(hydroxymethyl)tetrahydro-2H-pyran-2-yl)-1H-1,2,3-triazol-5-yl)methoxy)-2-(3,4,5-trihydroxyphenyl)chroman-3-yl 3,4,5-trihydroxybenzoate]", "values": [{"measurement": "nude mouse body weight compared with the control group", "setting": "NCI-H441 xenograft; compound 3 200 mg/kg per day i.p.", "result": "did not reduce the nude mouse body weight"}, {"measurement": "tumor growth compared with the control", "setting": "NCI-H441 xenograft", "result": "reduced tumor growth"}, {"measurement": "number of apoptotic cells compared to untreated control", "setting": "NCI-H441 cells [2]", "result": "significantly increased in a concentration-dependent manner"}, {"measurement": "transepithelial transport rate, apical to basolateral, fold higher than EGCG", "setting": "Caco-2 cell monolayers", "result": 4.9, "unit": "fold"}, {"measurement": "Papp A→B at 30 min, 50 μg/mL", "setting": "[1]", "result": 0.914, "unit": "×10⁻⁶ cm/s"}, {"measurement": "Papp A→B at 60 min, 50 μg/mL", "setting": "[1]", "result": 0.41, "unit": "×10⁻⁶ cm/s"}, {"measurement": "Papp B→A at 30 min, 50 μg/mL", "setting": "[1]", "result": 0.83, "unit": "×10⁻⁶ cm/s"}, {"measurement": "Papp B→A at 60 min, 50 μg/mL", "setting": "[1]", "result": 0.39, "unit": "×10⁻⁶ cm/s"}, {"measurement": "Papp", "setting": "[1]", "result": "0.083 to 0.914", "unit": "×10⁻⁶ cm/s"}, {"measurement": "proliferation of A549 cells", "setting": "A549 cells", "result": "the same effect was not observed"}, {"measurement": "proliferation of NCI-H1975 cells", "setting": "NCI-H1975 cells", "result": "the same effect was not observed"}, {"measurement": "proliferation of NCI-H441 cells", "setting": "NCI-H441 cells [3]", "result": "substantial dose-dependent growth inhibition"}, {"measurement": "P-EGFR, P-AKT and P-ERK levels", "setting": "[4]", "result": "effectively inhibited these phosphorylation proteins in a dose-dependent manner"}, {"measurement": "cell cycle distribution, effect of increasing doses", "setting": "NCI-H441 cells [5]", "result": "increased the proportion of cells in the S phase in a dose-dependent manner"}]}
{"molecule": "[NH2][Pt]([NH2])([Cl])[Cl]", "note": "[cDDP, cisplatin]", "values": [{"measurement": "tumor growth compared with the control", "setting": "NCI-H441 xenograft", "result": "reduced tumor growth"}, {"measurement": "levels of PCNA, p53, p21, cyclin D1 and cyclin E", "setting": "NCI-H441 cells [6]", "result": "minimal effects"}]}
